Measured values published in patent US11524012B1, “Quinolone analogs and their salts, compositions, and method for their use” (Senhwa Biosciences, Inc., priority 2018, dated 2022).

Experiment: Stability study of lyophilized Compound I with mannitol (Method A / Method B samples)
Format: physicochemical
Settings: Method B sample
Experimental: […] Each 30 mL Type I, clear glass sample vial with 20 mm Freeze Dry Stoppers (Flurotech™ coated) contained 150 mg of Compound I.
At each time point, a vial was removed from the stored condition and reconstituted with 10 mL of D5W and analyzed by HPLC method as discussed in Example 5 at 1 month, 2 months, 3 months, and/or 6 months. In Tables 18-18e, RRT matches the Compounds as shown below.
Sample Preparation—Method A: 10% Mannitol solution was prepared by weighing 200 g±1.0 g of mannitol into glass beaker, adding approximately 1500 mL of WFI (water for injection) to the beaker and stirring until mannitol was dissolved. The mannitol solution was transferred to a 2 L volumetric flask and made to volume with WFI, then poured back to the original beaker to sir and mix further. 1M HCl solution was prepared by adding 16.4 mL of HCl (37%) to a 200 mL volumetric flask containing approximately 100 mL of WFI, adding WFI to make 200 mL in volume, and inverting to mix the prepared solution.
To a tared 2 L Schott bottle containing a magnetic stirrer and wrapped in aluminum foil, 1020 g±1.0 g of the 10% mannitol solution was added. Then, 58.4 g±0.05 g of the 1M HCl solution was added to the 2 L Schott bottle and stirred for approximately 10 minutes. The solution prepared in the 2 L Schott bottle was purged with nitrogen which was continued throughout the manufacturing process. 30.22 g of Compound I (free base) was weighed then added to the 2 L Schott bottle containing 10% mannitol solution and 1 M HCl solution with continual magnetic stirring. The container used to weigh Compound I was rinsed with 3×10 mL of WFI and added to the Schott bottle. After Compound I dissolved (approximately 40 minutes), additional 650 g of WFI was added to the Schott bottle and the solution was stirred for approximately 10 minutes. The pH of the Compound I solution (in Schott bottle) was measured then adjusted to pH 4.5±0.1 using 1 M HCl solution. After each addition of 1 M HCl solution, the solution was stirred for several minutes prior to verifying the pH. Once the pH was adjusted, nitrogen purging was stopped. The pH adjusted Compound I solution was further diluted with WFI to a target weight of 2040 g±1.0 g and stirred.
The final solution (pH adjusted and diluted) was filtered (chain including PVD Fmembrane filter 0.45 μm and 0.22 μm; peristaltic filtration pump by Watson Marlow) in the Bigneat and the bottle containing the filtered solution was sealed. The filtered solution was pumped (Watson Marlow Flexicon PF6-B pump; 100 RPM) into 30 mL Schott Clear Glass vials (10.0 mL filtered solution each). The glass vials were partially stoppered with 20 mm Freeze Dry Stopper Flurotec (Daikyo Seiko) one vial at a time with sterilized utensils inside a fume hood (Envair B101+1.5R) and placed on freeze dryer trays. The freeze dryer trays were transferred into freeze dry chamber and vial probe was positioned (Lyostar II; FTS Kinetics). Lyophilization was performed using the lyophilization cycle listed below. After lyophilization cycle finished, the vials were back filled with N2 and the stopper was placed in situ, wiped down with isopropanol in the fume hood once removed from the freeze dryer, reconciled, then crimped. Seven vials out of 186 sample vials placed under the lyophilization cycle had smashed in the freeze dryer.
Sample Preparation—Method B (dissolved oxygen content ≤1 ppm): 2 L WFI was poured into a Schott bottled and degassed for 30 minutes with N2 until dissolved oxygen content was ≤1 ppm (dissolved oxygen meter and probe; Mettler Toledo). 10% Mannitol solution was prepared by adding […] of mannitol and 1000 mL of degassed WFI to a tared 2 L Schott bottle containing a magnetic stirrer and wrapped in aluminum foil. To the Schott bottle containing mannitol, 15 mL of 2M HCl was added and stirred for approximately 10 minutes. The resulting solution was sparged with N2 while stirring until dissolved oxygen content was ≤1 ppm (approx. 30 min). […]

[1] = 5° C, time not printed (2nd block, col 1)
[2] = 5° C, time not printed (2nd block, col 2)
[3] = 5° C, time not printed (2nd block, col 3)
[4] = 5° C, time not printed (2nd block, col 4)

## Cc1cnc(CNC(=O)c2c(=O)c3ccc(N4CCCN(C)CC4)nc3n3c2sc2ccccc23)cn1 [Compound I, 2-(4-Methyl-[1,4]diazepan-1-yl)-5-oxo-5H-7-thia-1,11b-diaza-benzo[c]fluorene-6-carboxylic acid (5-methyl-pyrazin-2-ylmethyl)-amide]
5° C, Initial
  pH (USP<791>): 4.6
[1]
  Appearance: Off-white powder
  Appearance (Reconstituted Solution): Clear, colorless
  Compound I by HPLC assay: 101.7%
  Related Substances RRT 1.05: RRT 1.05: 0.14%
  Related Substances RRT 1.07: RRT 1.07: 0.05%
  Related Substances Total: Total:0.2%
  Water Content USP<921 Method 1c>: 1.37%
  pH (USP<791>): 4.6
[2]
  Appearance: Off-white powder
  Appearance (Reconstituted Solution): Clear, colorless
  Compound I by HPLC assay: 101.3%
  Related Substances RRT 1.05: RRT 1.05: 0.13%
  Related Substances Total: Total: 0.1%
  Water Content USP<921 Method 1c>: 1.29%
  pH (USP<791>): 4.5
[3]
  Appearance: Off-white powder
  Appearance (Reconstituted Solution): Clear, colorless
  Compound I by HPLC assay: 100.3%
  Related Substances RRT 1.05: RRT 1.05: 0.13%
  Related Substances Total: Total: 0.1%
  Water Content USP<921 Method 1c>: 1.05%
  pH (USP<791>): 4.5
[4]
  Appearance: Off-white powder
  Appearance (Reconstituted Solution): Clear, colorless
  Compound I by HPLC assay: 99.1%
  Related Substances RRT 1.05: RRT 1.05: 0.11%
  Related Substances Total: Total: 0.1%
  Water Content USP<921 Method 1c>: 1.25%
  pH (USP<791>): 4.5
25° C./60% RH, 1 month
  Appearance: White
  Appearance (Reconstituted Solution): Clear, colorless
  Compound I by HPLC assay: 99.8%
  Reconstitution Time: 55 s
  Related Substances RRT 1.06: 0.17%
  Related Substances RRT 1.08: 0.06%
  Related Substances Total: Total: 0.2%
  Water Content USP<921 Method 1c>: 1.47%
  pH (USP<791>): 4.4
25° C./60% RH, 2 months
  Appearance: Off-white
  Appearance (Reconstituted Solution): Clear, colorless
  Compound I by HPLC assay: 101.0%
  Related Substances RRT 0.17: 0.08%
  Related Substances RRT 1.04: 0.08%
  Related Substances RRT 1.05: 0.17%
  Related Substances Total: Total: 0.3%
  Water Content USP<921 Method 1c>: 1.30%
  pH (USP<791>): 4.6
25° C./60% RH, 3 months
  Appearance: Off-white
  Appearance (Reconstituted Solution): Clear, colorless
  Compound I by HPLC assay: 100.8%
  Related Substances RRT 0.17: 0.09%
  Related Substances RRT 1.04: 0.08%
  Related Substances RRT 1.05: 0.19%
  Related Substances Total: Total: 0.4%
  Water Content USP<921 Method 1c>: 1.30%
  pH (USP<791>): 4.6
25° C./60% RH, 6 months
  Appearance: Off-white
  Appearance (Reconstituted Solution): Clear, colorless
  Compound I by HPLC assay: 100.3%
  Related Substances RRT 0.88: 0.06%
  Related Substances RRT 1.05: 0.16%
  Related Substances RRT 1.07: 0.10%
  Related Substances Total: Total: 0.3%
  Water Content USP<921 Method 1c>: 1.30%
  pH (USP<791>): 4.5
25° C./60% RH, 12 months
  Appearance: Off-white
  Appearance (Reconstituted Solution): Clear, colorless
  Compound I by HPLC assay: 100.7%
  Related Substances RRT 1.05: 0.18%
  Related Substances RRT 1.07: 0.09%
  Related Substances Total: Total: 0.3%
  Water Content USP<921 Method 1c>: 1.55%
  pH (USP<791>): 4.5
25° C./60% RH, 24 months
  Appearance: Off-white
  Appearance (Reconstituted Solution): Clear, colorless
  Compound I by HPLC assay: 97.6%
